Data published in patent US12371454B2, “Cyclic peptide compound having Kras inhibitory action” (priority 2019, dated 2025).
Positions of bridges follow the written chain, without caps; N, C: chain ends. Non-standard residues stand in square brackets, D forms with d. Residues, ends and D or L forms follow the SMILES beside them. *: point of attachment. hPhe(3-Cl-4-CF3) = N[C@@H](CCc1ccc(C(F)(F)F)c(Cl)c1)C(=O)O; Pro(cis-4-Ph) = O=C(O)[C@@H]1C[C@H](c2ccccc2)CN1; Phe(3-CF3) = N[C@@H](Cc1cccc(C(F)(F)F)c1)C(=O)O; NMePhe(3-Cl) = CN[C@@H](Cc1cccc(Cl)c1)C(=O)O; NMePhe(4-Cl) = CN[C@@H](Cc1ccc(Cl)cc1)C(=O)O; NMePhe(4-Me) = CN[C@@H](Cc1ccc(C)cc1)C(=O)O; hPhe(4-Cl) = N[C@@H](CCc1ccc(Cl)cc1)C(=O)O; Phe(3-I) = N[C@@H](Cc1cccc(I)c1)C(=O)O; NMeCha = CN[C@@H](CC1CCCCC1)C(=O)O; NMeChg = CN[C@H](C(=O)O)C1CCCCC1; Gly(cPr) = N[C@H](C(=O)O)C1CC1; NMeD = CN[C@@H](CC(=O)O)C(=O)O; NMeL = CN[C@@H](CC(C)C)C(=O)O; NMeV = CN[C@H](C(=O)O)C(C)C; d(β3hA) = C[C@@H](N)CC(=O)O; NMeS = CN[C@@H](CO)C(=O)O; NMeAib = CNC(C)(C)C(=O)O; Nle = CCCC[C@H](N)C(=O)O; Piperidide = C1CCN(*)CC1; Ac5c = NC1(C(=O)O)CCCC1; Aze = O=C(O)[C@@H]1CCN1; X47 = Fc1cncc(C*)c1; Sar = CNCC(=O)O

target: T1, Kras and SOS1 (biotin-tagged human Kras loaded with GDP, His-tagged human SOS1) (Homo sapiens, UniProt P01116, G12D); test: Protein-protein interaction inhibition between Kras and SOS1 (KrasGl2D-SOS PPI) using AlphaScreen; assay type: binding; conditions: AlphaScreen; biotin-tagged human Kras loaded with GDP, His-tagged human SOS1; read-out: KRAS G12D-SOS PPI IC50
T1 construct: made in house; host or cells: E. coli (stated for Kras only)
T1 sequence (P01116 1-188 isoform P01116-2 G12D): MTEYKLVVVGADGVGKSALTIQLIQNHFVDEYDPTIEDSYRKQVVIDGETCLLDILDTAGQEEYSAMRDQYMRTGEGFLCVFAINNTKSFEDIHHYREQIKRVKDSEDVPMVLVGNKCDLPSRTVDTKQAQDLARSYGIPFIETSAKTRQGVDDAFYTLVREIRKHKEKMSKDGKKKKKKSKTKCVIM
Protocol: Protein-Protein Interaction Inhibition Between Kras and SOS1 (KrasGl2D-SOS PPI) Using AlphaScreen
Protein-protein interaction inhibition (PPI) between Kras and SOS1 was measured by energy transfer from nickel-conjugated donor beads to streptavidin-conjugated acceptor beads using biotin-tagged human Kras expressed in E. coli and loaded with GDP after purification and His-tagged human SOS1 enzyme. This measurement utilizes the phenomenon in which donor beads are irradiated with light at 680 nm, such that energy is transferred to acceptor beads through singlet oxygen and light at 520-620 nm is detected from the acceptor beads.
Inhibition of binding between K-ras and SOS1 is known to inhibit signaling downstream of Kras.

With `CC[C@H](C)[C@@H]1NC(=O)[C@H](CC(C)C)N(C)C(=O)C[C@@H](C(=O)N2CCCCC2)N(C)C(=O)[C@H](C(C)C)N(C)C(=O)C2(CCCC2)NC(=O)[C@@H]2CCCN2C(=O)[C@H](CCc2ccc(C(F)(F)F)c(Cl)c2)NC(=O)CN(C)C(=O)[C@H](CC2CCCCC2)N(C)C(=O)[C@@H]2CCN2C(=O)[C@H](C2CCCCC2)N(C)C1=O` [Compound 1600] ([NMeL]I[NMeChg][Aze][NMeCha][Sar][hPhe(3-Cl-4-CF3)]P[Ac5c][NMeV][NMeD]-Piperidide; lactam N-11) as the molecule, how does the IC50 read?
The IC50 was 310 nM.

With `CC[C@H](C)[C@@H]1NC(=O)[C@H](CC(C)C)N(C)C(=O)C[C@@H](C(=O)N2CCCCC2)N(C)C(=O)[C@H](C2CCCCC2)N(C)C(=O)C2(CCCC2)NC(=O)[C@H](COCc2cncc(F)c2)N(C)C(=O)[C@H](CCc2ccc(C(F)(F)F)c(Cl)c2)NC(=O)CN(C)C(=O)[C@H](CC2CCCCC2)N(C)C(=O)CN(C)C(=O)CN(C)C1=O` [Compound 950] ([NMeL]I[Sar][Sar][NMeCha][Sar][hPhe(3-Cl-4-CF3)][NMeS](X47)[Ac5c][NMeChg][NMeD]-Piperidide; lactam N-11) as the molecule, how does the IC50 read?
Its IC50 is 9 nM.

For `CC[C@H](C)[C@@H]1NC(=O)[C@H](CC(C)C)N(C)C(=O)C[C@@H](C)NC(=O)[C@H](C(C)C)N(C)C(=O)C2(CCCC2)NC(=O)[C@@H]2CCCN2C(=O)[C@H](CCc2ccc(C(F)(F)F)c(Cl)c2)NC(=O)CN(C)C(=O)[C@H](CC2CCCCC2)N(C)C(=O)[C@@H]2CCCN2C(=O)CN(C)C1=O` [Compound 1050] (cyclo([Ac5c][NMeV][d(β3hA)][NMeL]I[Sar]P[NMeCha][Sar][hPhe(3-Cl-4-CF3)]P)), which IC50 is on record?
The IC50 was 49 nM.

Which IC50 does the source give for `CC[C@H](C)[C@@H]1NC(=O)[C@H](CC(C)C)N(C)C(=O)C[C@@H](C(=O)N2CCCCC2)N(C)C(=O)[C@H](CC(C)C)NC(=O)C(C)(C)N(C)C(=O)[C@H](Cc2cccc(C(F)(F)F)c2)NC(=O)[C@H](Cc2cccc(I)c2)NC(=O)CN(C)C(=O)[C@H](Cc2ccc(C)cc2)N(C)C(=O)CN(C)C(=O)CN(C)C1=O` [Compound 376] ([NMeL]I[Sar][Sar][NMePhe(4-Me)][Sar][Phe(3-I)][Phe(3-CF3)][NMeAib]L[NMeD]-Piperidide; lactam N-11) here?
Its IC50 is 44 nM.

For `CCCC[C@@H]1NC(=O)[C@H](Cc2cccc(I)c2)NC(=O)CN(C)C(=O)[C@H](Cc2ccc(Cl)cc2)N(C)C(=O)CN(C)C(=O)CN(C)C(=O)[C@H]([C@@H](C)CC)NC(=O)[C@H](CC(C)C)N(C)C(=O)C[C@@H](C(=O)N2CCCCC2)N(C)C(=O)[C@H](CC(C)C)NC(=O)[C@H](Cc2cccc(Cl)c2)N(C)C1=O` [Compound 1044] ([NMeL]I[Sar][Sar][NMePhe(4-Cl)][Sar][Phe(3-I)][Nle][NMePhe(3-Cl)]L[NMeD]-Piperidide; lactam N-11), which IC50 is on record?
The IC50 was 55 nM.

With `CC[C@H](C)[C@@H]1NC(=O)[C@H](CC(C)C)N(C)C(=O)C[C@@H](C(=O)N2CCCCC2)N(C)C(=O)[C@H](COC)N(C)C(=O)C2(CCCC2)NC(=O)[C@@H]2CCCN2C(=O)[C@H](CCc2ccc(C(F)(F)F)c(Cl)c2)NC(=O)CN(C)C(=O)[C@H](CC2CCCCC2)N(C)C(=O)CN(C)C(=O)CN(C)C1=O` [Compound 850] ([NMeL]I[Sar][Sar][NMeCha][Sar][hPhe(3-Cl-4-CF3)]P[Ac5c][NMeS](Me)[NMeD]-Piperidide; lactam N-11) as the molecule, how does the IC50 read?
Its IC50 is 24 nM.

Which IC50 does the source give for `CC[C@H](C)[C@@H]1NC(=O)[C@H](CC(C)C)N(C)C(=O)C[C@@H](C(=O)N2CCCCC2)N(C)C(=O)[C@H](C(C)C)N(C)C(=O)C2(CCCC2)NC(=O)[C@@H]2CCCN2C(=O)[C@H](CCc2ccc(Cl)cc2)NC(=O)CN(C)C(=O)[C@H](CC2CCCCC2)N(C)C(=O)[C@@H]2CCCN2C(=O)CN(C)C1=O` [Compound 953] ([NMeL]I[Sar]P[NMeCha][Sar][hPhe(4-Cl)]P[Ac5c][NMeV][NMeD]-Piperidide; lactam N-11) here?
Its IC50 is 180 nM.

Which IC50 does the source give for `CC[C@H](C)[C@@H]1NC(=O)[C@H](CC(C)C)N(C)C(=O)C[C@@H](C(=O)N2CCCCC2)N(C)C(=O)[C@H](C2CCCCC2)N(C)C(=O)C2(CCCC2)NC(=O)[C@@H]2C[C@H](c3ccccc3)CN2C(=O)[C@H](CCc2ccc(C(F)(F)F)c(Cl)c2)NC(=O)CN(C)C(=O)[C@H](CC2CCCCC2)N(C)C(=O)[C@@H]2CCCN2C(=O)CN(C)C1=O` [Compound 1096] ([NMeL]I[Sar]P[NMeCha][Sar][hPhe(3-Cl-4-CF3)][Pro(cis-4-Ph)][Ac5c][NMeChg][NMeD]-Piperidide; lactam N-11) here?
Its IC50 is 2.6 nM.

`CC(C)C[C@H]1C(=O)N[C@@H](C2CC2)C(=O)N(C)CC(=O)N(C)CC(=O)N(C)[C@@H](CC2CCCCC2)C(=O)N(C)CC(=O)N[C@@H](CCc2ccc(C(F)(F)F)c(Cl)c2)C(=O)N2CCC[C@H]2C(=O)NC2(CCCC2)C(=O)N(C)[C@@H](C2CCCCC2)C(=O)N(C)[C@H](C(=O)N2CCCCC2)CC(=O)N1C` [Compound 1862] ([NMeL][Gly(cPr)][Sar][Sar][NMeCha][Sar][hPhe(3-Cl-4-CF3)]P[Ac5c][NMeChg][NMeD]-Piperidide; lactam N-11) was tested. Which IC50 did it give?
Its IC50 is 2 nM.
